pIC50: −log10 of the molar value.

T1 sequence (Q02750 whole entry): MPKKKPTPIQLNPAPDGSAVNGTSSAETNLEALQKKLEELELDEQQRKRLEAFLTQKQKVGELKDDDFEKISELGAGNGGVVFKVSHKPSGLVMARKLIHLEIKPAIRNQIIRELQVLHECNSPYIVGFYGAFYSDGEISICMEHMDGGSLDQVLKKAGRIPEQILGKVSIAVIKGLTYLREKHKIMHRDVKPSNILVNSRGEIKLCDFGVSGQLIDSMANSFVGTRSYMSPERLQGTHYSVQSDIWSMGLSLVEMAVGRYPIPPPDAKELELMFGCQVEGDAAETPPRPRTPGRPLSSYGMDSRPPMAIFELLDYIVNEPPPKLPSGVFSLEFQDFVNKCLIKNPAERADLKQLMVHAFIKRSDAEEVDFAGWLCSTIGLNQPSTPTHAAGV
T1 sequence (P15056 445-723 partner limits assumed): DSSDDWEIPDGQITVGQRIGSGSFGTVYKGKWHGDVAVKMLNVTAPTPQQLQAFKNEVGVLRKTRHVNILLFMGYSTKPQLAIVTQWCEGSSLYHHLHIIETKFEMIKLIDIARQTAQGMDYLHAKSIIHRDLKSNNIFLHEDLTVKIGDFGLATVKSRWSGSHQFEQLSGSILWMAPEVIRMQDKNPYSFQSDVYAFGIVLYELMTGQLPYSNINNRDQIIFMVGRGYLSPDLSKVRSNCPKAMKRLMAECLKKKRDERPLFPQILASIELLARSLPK

This test has as its target T1, MEK1 (Homo sapiens, UniProt Q02750).
T1 construct: purchased SignalChem M02-14H
In words: MEK1 kinase cascade assay (ADP-Glo), inhibition of MEK1 kinase activity. In kind it is biochemical. The settings on record: 25 nM BRAF, 6.25 nM MEK1, 0.5 μM ERK, 1 mM ATP; 20 min preincubation, 1 hr at 25° C.; read-out: BRAF ADP Glo kinase assay V3 (IC50). The text has this:
Protein expression and purification: BRAF (445-723) with N-term His-tag and C-term StrepII tag was expressed using the Expi293 system (ThermoFisher) and purified using Strep-Tactin® XT-Superflow (IBA) chromatography. ERK1 (full-length) with N-term His-tag was expressed in Rosetta DE3 cells (Millipore) and purified using HisTrap HP (Cytiva) and Superdex 200 (Cytiva) column chromatography. Full-length MEK1 for TR-FRET assays with N-term His-tag was expressed in BL21DE3 cells (ThermoFisher) and purified using HisTrap HP (Cytiva) and Superdex 200 (Cytiva) column chromatography.
Efficacy of exemplary compounds in inhibition of MEK1 kinase activity: The effect of compound MEK1 inhibition was evaluated using an ADP detection system for kinases, such as the ADP-Glo assay (Promega). The MEK1 kinase cascade assay consisted of 9 μL reaction volumes in 384-well white, opaque Optiplates (PerkinElmer). Compounds were prepared from DMSO stocks in assay buffer (10 mM HEPES pH 7.5, 5 mM MgCl2, 2 mM CHAPS, and 1 mM DTT) and preincubated with 25 nM BRAF for 20 mins at 25° C. prior to addition of 6.25 nM MEK1/0.5 μM ERK/1 mM ATP premix to initiate the kinase reaction. Both BRAF and ERK1 were produced in-house, and MEK1 was purchased from SignalChem (M02-14H). DMSO was kept constant at a final concentration of 1%. After a 1 hr incubation at 25° C., conversion of ATP to ADP was detected using ADP-Glo™ reagents according to the manufacturer's protocol. Luminescence was measured using a CLARIOstar microplate reader (BMG). Percent (%) Inhibition was calculated by normalizing to DMSO control (max) and 1 μM Trametinib (min). % inhibition as a function of compound concentration from 2 replicate wells was fit with a 4-parameter logistic curve equation using GraphPad Prism or CDD Vault to derive IC50 values.
In this table, for the BRAF ADP Glo kinase assay, “A” indicates IC50 of less than 5 nM; “B” indicates IC50 of between 5 nM to 50 nM; and “C” indicates IC50 of between 50 nM to 500 nM. “D” indicates IC50 of greater than 500 nM. For the BRAF-MEK TR-FRET assay, “A” indicates EC50 of less than 50 nM; “B” indicates EC50 of between 50 nM to 200 nM; and “C” indicates EC50 of between 200 nM to 1 μM. “D′” indicates EC50 of greater than 1 μM. For the AlphaLisa P-ERK assay, “A” indicates IC50 of less than 1 nM; “B” indicates IC50 of between 1 nM to 10 nM; and “C” indicates IC50 of between 10 nM to 100 nM. “D” indicates IC50 of greater than 100 nM. For the cell viability assay, “A” indicates IC50 of less than 1 nM; “B” indicates IC50 of between 1 nM to 10 nM; and “C” indicates IC50 of between 10 nM to 100 nM. “D” indicates IC50 of greater than 100 nM.
Background: ADP-Glo turns the ADP formed in a reaction into a luminescent signal.
In the case of `CNS(=O)(=O)Nc1cccc(CN2Cc3ccc(Oc4cccnc4)cc3OC2=O)c1F` [Compound 61, 3-{[2-fluoro-3-(methylaminosulfonylamino)phenyl]methyl}-7-(3-pyridyloxy)-3,4-dihydro-2H-1,3-benzoxazin-2-one], the pIC50 is 7.30 to 8.30.
In the case of `CNS(=O)(=O)Nc1cccc(CN2C(=O)Oc3cc(Oc4ncco4)c(F)cc3[C@@H]2C)c1F` (single isomer, unassigned) [Compound 84, (S)-6-fluoro-3-({2-fluoro-3-(methylsulfamoyl)amino]phenyl}methyl)-4-methyl-7-(1,3-oxazol-2-yloxy)-3,4-dihydro-2H-1,3-benzoxazin-2-one or (R)-6-fluoro-3-({2-fluoro-3-(methylsulfamoyl)amino]phenyl}methyl)-4-methyl-7-(1,3-oxazol-2-yloxy)-3,4-dihydro-2H-1,3-benzoxazin-2-one], the pIC50 is 7.30 to 8.30.
In the case of `CNS(=O)(=O)Nc1nccc(CN2C(=O)Oc3cc(Oc4ncc(C)o4)ccc3C23CCC3)c1F` [Compound 180, 3-{[3-fluoro-2-(methylaminosulfonylamino)-4-pyridyl]methyl}-7-(5-methyl-1,3-oxazol-2-yloxy)-2H,3H-spiro[1,3-benzoxazine-4,1′-cyclobutan]-2-one] it was 7.30 to 8.30; in that of `CNS(=O)(=O)Nc1cccc(CN2C(=O)Oc3c(ccc(Oc4ncccn4)c3F)C23COC3)c1F` [Compound 88], under 6.30; in that of `CNS(=O)(=O)Nc1cccc(CN2C(=O)Oc3cc(Oc4ccccn4)ccc3C23COC3)c1F` [Compound 50, 3-({2-fluoro-3-[(methylsulfamoyl)amino]phenyl}methyl)-7-(pyridin-2-yloxy)-2,3-dihydrospiro[1,3-benzoxazine-4,3′-oxetan]-2-one], 7.30 to 8.30.
To `CNS(=O)(=O)Nc1nccc(CN2C(=O)Oc3cc(Oc4nc(C)co4)ccc3C23CCC3)c1F` [Compound 182, 3-{[3-fluoro-2-(methylaminosulfonylamino)-4-pyridyl]methyl}-7-(4-methyl-1,3-oxazol-2-yloxy)-2H,3H-spiro[1,3-benzoxazine-4,1′-cyclobutan]-2-one] belongs 7.30 to 8.30; to `O=C1Oc2cc(Oc3cccnc3)ccc2CN1Cc1cccc(NS(=O)(=O)C2CC2)c1F` [Compound 60, (cyclopropylsulfonyl)(2-fluoro-3-{[2-oxo-7-(3-pyridyloxy)-3,4-dihydro-2H-1,3-benzoxazin-3-yl]methyl}phenyl)amine], 6.30 to 7.30; to `CNS(=O)(=O)Nc1cccc(CN2C(=O)Oc3cc(Oc4ncco4)cc(F)c3[C@H]2C)c1F` (single isomer, unassigned) [Compound 87, (R)-5-fluoro-3-({2-fluoro-3-(methylsulfamoyl)amino]phenyl}methyl)-4-methyl-7-(1,3-oxazol-2-yloxy)-3,4-dihydro-2H-1,3-benzoxazin-2-one or (S)-5-fluoro-3-({2-fluoro-3-(methylsulfamoyl)amino]phenyl}methyl)-4-methyl-7-(1,3-oxazol-2-yloxy)-3,4-dihydro-2H-1,3-benzoxazin-2-one], 6.30 to 7.30.
With `CNS(=O)(=O)Cc1cccc(CN2C(=O)Oc3cc(OC(=O)N(C)C)ccc3C23COC3)c1F` [Compound 47, 3-({2-fluoro-3-[(methylsulfamoyl)methyl]phenyl}methyl)-2-oxo-2,3-dihydrospiro[1,3-benzoxazine-4,3′-oxetan]-7-yl N,N-dimethylcarbamate], the pIC50 is 6.30 to 7.30.
For the molecule `O=C1Oc2cc(Oc3cnccn3)ccc2C2(COC2)N1Cc1cccc(NS(=O)(=O)C2CC2)c1F` [Compound 69, N-(2-fluoro-3-{[2-oxo-7-(pyrazin-2-yloxy)-2,3-dihydrospiro[1,3-benzoxazine-4,3′-oxetan]-3-yl]methyl}phenyl)cyclopropanesulfonamide], the pIC50 is 6.30 to 7.30.
For the molecule `CNS(=O)(=O)Nc1cccc(CN2Cc3ccc(Oc4ncccn4)cc3OC2=O)c1F` [Compound 157, 3-({2-fluoro-3-[(methylsulfamoyl)amino]phenyl}methyl)-7-(pyrimidin-2-yloxy)-3,4-dihydro-2H-1,3-benzoxazin-2-one], the pIC50 was 7.30 to 8.30.
For the molecule `CN(C)C(=O)Oc1ccc2c(c1)OC(=O)N(Cc1cccc(N3CCOC3=O)c1F)C2` [Compound 27, dimethylamino-3-{[2-fluoro-3-(2-oxo-1,3-oxazolidin-3-yl)phenyl]methyl}-2-oxo-3,4-dihydro-2H-1,3-benzoxazin-7-ylformylate], the pIC50 is under 6.30.
To `CNS(=O)(=O)Nc1cccc(CN2C(=O)Oc3c(ccc(Oc4ncco4)c3F)[C@H]2C)c1F` (single isomer, unassigned) [Compound 90, (R)-8-fluoro-3-({2-fluoro-3-(methylsulfamoyl)amino]phenyl}methyl)-4-methyl-7-(1,3-oxazol-2-yloxy)-3,4-dihydro-2H-1,3-benzoxazin-2-one or (S)-8-fluoro-3-({2-fluoro-3-(methylsulfamoyl)amino]phenyl}methyl)-4-methyl-7-(1,3-oxazol-2-yloxy)-3,4-dihydro-2H-1,3-benzoxazin-2-one] belongs 7.30 to 8.30; to `CNS(=O)(=O)Nc1cccc(CN2C(=O)Oc3c(ccc(Oc4ncccn4)c3F)[C@H]2C)c1F` (single isomer, unassigned) [Compound 93, (R)-8-fluoro-3-({2-fluoro-3-(methylsulfamoyl)amino]phenyl}methyl)-4-methyl-7-(pyrimidin-2-yloxy)-3,4-dihydro-2H-1,3-benzoxazin-2-one or (S)-8-fluoro-3-({2-fluoro-3-(methylsulfamoyl)amino]phenyl}methyl)-4-methyl-7-(pyrimidin-2-yloxy)-3,4-dihydro-2H-1,3-benzoxazin-2-one], 7.30 to 8.30.
To `CNS(=O)(=O)Nc1cc(F)cc(CN2C(=O)Oc3cc(Oc4ncco4)ccc3C23CCC3)c1F` [Compound 195, 3-{[2,5-difluoro-3-(methylaminosulfonylamino)phenyl]methyl}-7-(1,3-oxazol-2-yloxy)-2H,3H-spiro[1,3-benzoxazine-4,1′-cyclobutan]-2-one] belongs 6.30 to 7.30; to `CNS(=O)(=O)Nc1cccc(CN2C(=O)Oc3c(ccc(Oc4ncccn4)c3F)[C@@H]2C)c1F` (single isomer, unassigned) [Compound 92, (S)-8-fluoro-3-({2-fluoro-3-(methylsulfamoyl)amino]phenyl}methyl)-4-methyl-7-(pyrimidin-2-yloxy)-3,4-dihydro-2H-1,3-benzoxazin-2-one or (R)-8-fluoro-3-({2-fluoro-3-(methylsulfamoyl)amino]phenyl}methyl)-4-methyl-7-(pyrimidin-2-yloxy)-3,4-dihydro-2H-1,3-benzoxazin-2-one], 7.30 to 8.30; to `O=C1Oc2cc(Oc3cccnn3)ccc2CN1Cc1cccc(N2CCOC2=O)c1F` [Compound 26, 3-{[2-fluoro-3-(2-oxo-1,3-oxazolidin-3-yl)phenyl]methyl}-7-(3-pyridazinyloxy)-3,4-dihydro-2H-1,3-benzoxazin-2-one], 6.30 to 7.30.
Consider `CNS(=O)(=O)Cc1cccc(CN2Cc3ccc(OC(=O)N(C)C)cc3OC2=O)c1F` [Compound 45, 3-(2-fluoro-3-((N-methylsulfamoyl)methyl)benzyl)-2-oxo-3,4-dihydro-2H-benzo[e][1,3]oxazin-7-yl dimethylcarbamate], for which the pIC50 was under 6.30.
In the case of `CNS(=O)(=O)Nc1cccc(CN2Cc3cc(C)c(Oc4ncccn4)cc3OC2=O)c1F` [Compound 111, 3-({2-fluoro-3-[(methylsulfamoyl)amino]phenyl}methyl)-6-methyl-7-(pyrimidin-2-yloxy)-3,4-dihydro-2H-1,3-benzoxazin-2-one] it was 7.30 to 8.30; in that of `CNS(=O)(=O)Nc1ccc(F)c(CN2C(=O)Oc3cc(Oc4cccnn4)ccc3C23CCC3)c1F` [Compound 197, 3-{[2,6-difluoro-3-(methylaminosulfonylamino)phenyl]methyl}-7-(3-pyridazinyloxy)-2H,3H-spiro[1,3-benzoxazine-4,1′-cyclobutan]-2-one], 6.30 to 7.30.

In general, pIC50 refers to the negative decadic logarithm of the IC50, by convention in mol/L.
